From US20020055094A1 (priority 1996, published 2002)
Where two headings read alike, the source gives them in different places.

Tests used:
[1] = target: whole virus influenza neuraminidase, influenza A strain NWS/Tokyo (Influenza A virus, UniProt P06820); experiment: biochemical
[2] = target: whole virus influenza neuraminidase, influenza B strain B/Vic/02/87 (Influenza B virus, UniProt P27907); type: biochemical; details: read-out: Binding Constants (M) / inhibition constants (IC50), B/Vic/02/87
whole virus influenza neuraminidase, influenza B strain B/Vic/02/87, sequence (P27907 whole entry, looked up): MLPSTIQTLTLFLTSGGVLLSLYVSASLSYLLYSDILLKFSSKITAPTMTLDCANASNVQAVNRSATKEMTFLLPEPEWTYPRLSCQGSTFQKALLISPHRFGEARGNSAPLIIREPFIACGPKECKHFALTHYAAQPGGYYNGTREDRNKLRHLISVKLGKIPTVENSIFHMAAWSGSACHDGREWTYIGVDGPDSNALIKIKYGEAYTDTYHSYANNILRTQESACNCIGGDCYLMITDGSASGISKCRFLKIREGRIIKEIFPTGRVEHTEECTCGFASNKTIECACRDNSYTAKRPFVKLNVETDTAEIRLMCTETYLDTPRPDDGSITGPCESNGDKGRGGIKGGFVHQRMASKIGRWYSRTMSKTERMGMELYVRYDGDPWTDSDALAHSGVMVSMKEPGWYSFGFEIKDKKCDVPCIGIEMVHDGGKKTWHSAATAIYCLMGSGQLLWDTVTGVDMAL

[3] = test system: influenza A NWS/Tokyo (H1N2); type: binding

whole virus influenza neuraminidase, influenza A strain NWS/Tokyo, sequence (P06820 whole entry, looked up): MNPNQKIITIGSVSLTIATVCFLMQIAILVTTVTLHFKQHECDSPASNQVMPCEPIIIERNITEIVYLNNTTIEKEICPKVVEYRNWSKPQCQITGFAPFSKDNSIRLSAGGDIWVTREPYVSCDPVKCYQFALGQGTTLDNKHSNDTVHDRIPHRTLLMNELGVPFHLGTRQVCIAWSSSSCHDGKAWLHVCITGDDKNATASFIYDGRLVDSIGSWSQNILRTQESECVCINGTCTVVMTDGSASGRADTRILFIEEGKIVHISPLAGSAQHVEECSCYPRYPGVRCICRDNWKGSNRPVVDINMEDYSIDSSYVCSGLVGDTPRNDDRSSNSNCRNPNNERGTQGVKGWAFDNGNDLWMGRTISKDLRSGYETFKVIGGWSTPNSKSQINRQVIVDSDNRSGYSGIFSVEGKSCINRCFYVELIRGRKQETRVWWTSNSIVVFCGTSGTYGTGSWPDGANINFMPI

| Molecule | IC50 [1] [M] | other results |
| --- | --- | --- |
| DANA [reference compound] | – | IC50 ([1]; read-out: Binding Constants (M) / inhibition constants (IC50), NWS/Tokyo): 4e-05 M |
| CC(=O)N[C@H]1[C@H]([C@H](OC(=O)NCCCCCCN)[C@H](O)CO)OC(C(=O)O)=C[C@@H]1NC(=N)N [compound 11, 5-acetamido-7-(6′-aminohexyl)-carbamoyloxy-4-guanidino-2,3,4,5-tetradeoxy-D-glycero-D-galacto-non-2-enopyranosonic acid] | 2e-08 | – |
| CC(=O)N[C@H]1[C@H]([C@H](OC(=O)NCCCCCCNC(=O)CNC(=O)CNC(=O)CNC(=O)CCCC[C@@H]2SC[C@@H]3NC(=O)N[C@@H]32)[C@H](O)CO)OC(C(=O)O)=C[C@@H]1NC(=N)N [Compound No. 21, 5-acetamido-7-(6′-biotinylamino-tricrlycinamido-hexy) -carbamoyloxy-4-guanidino-2,3,4,5-tetradeoxy-D-glycerQ-D-galacto-non-2-enopyranosonic acid] | 4e-08 | – |
| CC(=O)N[C@H]1[C@H]([C@H](OC(=O)NCCOCCOCCN)[C@H](O)CO)OC(C(=O)O)=C[C@@H]1NC(=N)N [compound 17, 5-acetamido-7-{2-[2-(2-aminoethoxy)-ethoxy]-ethyl}-carbamoyloxy-4-guanidino-2,3,4,5-tetradeoxy-D-glycero-D-galacto-non-2-enopyranosonic acid] | 2e-08 | – |
| CC(=O)N[C@H]1[C@H]([C@H](OC(=O)NCCCCCCNC(=O)NCCCCCCN)[C@H](O)CO)OC(C(=O)O)=C[C@@H]1NC(=N)N [Compound No. 8, 5-acetamido-7-[6′-(6″-aminohexylureido)-hexyl]-carbamoyloxy-4-guanidino-2,3,4,5-tetradeoxy-D-glycero-D-galacto-non-2-enopyranosonic acid] | 4e-08 | – |
| CC(=O)N[C@H]1[C@H]([C@H](OC(=O)NCCCCCCNC(=O)CCCCCNC(=O)CCCCCNC(=O)CCCCCNC(=O)CCCCCN)[C@H](O)CO)OC(C(=O)O)=C[C@@H]1NC(=N)N [compound 25, 5-acetamido-7-(6′-(6″-(6″′-aminocaproyl) -triaminocaproyl) -aminohexyl) -carbamoyloxy-4-guanidino-2,3,4,5-tetradeoxy-D-glycero-D-galacto-non-2-enopyranosonic acid] | 5e-08 | – |
| CC(=O)N[C@H]1[C@H]([C@H](OC(=O)NCCCCCCNC(=O)CCCCCCCCCCCNC(=O)CCCC[C@@H]2SC[C@@H]3NC(=O)N[C@@H]32)[C@H](O)CO)OC(C(=O)O)=C[C@@H]1NC(=N)N [compound 22, 5-Acetamido-7-(6′-biotinylamino-dodecanoyl-aminohexyl) -carbamoyl-4-guanidino-2,3,4,5-tetradeoxy-D-glycero-D-galacto-non-2-enopyranosonic acid] | 3e-08 | – |
| CC(=O)N[C@H]1[C@H]([C@H](OC(=O)NCCCCCCNC(=O)NCCCCCCNC(=O)OC(C)(C)C)[C@H](O)CO)OC(C(=O)O)=C[C@@H]1N [compound 20, 5-acetamido-4-amino-7-[6′-(6″-tert-butoxycarbonyl-aminohexylureido) -hexyl]-carbamoyloxy-2,3,4,5-tetradeoxy-D-glycero-D-galacto-non-2-enopyanosonic acid] | 1e-05 | – |
| CC(=O)N[C@H]1[C@H]([C@H](OC(=O)NCCCCCCNC(=O)CCCC[C@@H]2SC[C@@H]3NC(=O)N[C@@H]32)[C@H](O)CO)OC(C(=O)O)=C[C@@H]1NC(=N)N [compound 19, 5-acetamindo-7-(6′-biotinylaminohexyl),carbamoyloxy-4-guanidino-2,3,4,5-tetradeoxy-D-crlvero-D-galacto-non-2-enopyranosonic acid] | 1e-08 | – |
| CC(=O)N[C@H]1[C@H]([C@H](OC(=O)NCCCCCCNC(=O)OC(C)(C)C)[C@H](O)CO)OC(C(=O)O)=C[C@@H]1NC(=N)N [compound 13, 5-acetamido-7-(6′-tert-butoxycarbonylaminohexyl)-carbamoyloxy-4-guanidino-2,3,4,5-tetradeoxy-D-glycero-D-galacto-non-2-enopyranosonic acid] | 2e-08 | – |
| CC(=O)N[C@H]1[C@H]([C@H](OC(=O)NCCCCCCNC(=O)CCCCCNC(=O)CCCC[C@@H]2SC[C@@H]3NC(=O)N[C@@H]32)[C@H](O)CO)OC(C(=O)O)=C[C@@H]1NC(=N)N [compound 23, 5-Acetamido-7-(6′-biotinylamino-caproyl-aminohexyl) -carbamoyl-4-guanidino-2,3,4,5-tetradeoxy-D-glycero-D-galacto-non-enopyranosonic acid] | 2e-08 | – |
| 5-acetamido-7-{6′-[6″-(6″′-biotinylaminocaproyl) -tri-amingcaroyl]-aminohexyl}-carbamoyloxy-4-guanidino -2,3,4,5-tetradeoxy-D-glycero-D-gaacto-non-2-enopyranosonic acid [Compound No. 26] | – | IC50 [2]: 4e-08 M; compound concentration giving the best results [3]: 0.1 µM; virus amount readily detected [3]: 2.5×10^5 pfu/well |
